Compound `O=c1ccc2ccccc2o1` has a solubility (mole fraction) (in cyclohexane, 283.15 K) of 0.00162, a solubility (mole fraction) (in cyclohexane, 288.15 K) of 0.00236 and a solubility (mole fraction) (in cyclohexane, 293.15 K) of 0.00321. For the same compound, the solubility (mole fraction) (in cyclohexane, 298.15 K) was 0.00428, the solubility (mole fraction) (in cyclohexane, 303.15 K) was 0.00607 and the solubility (mole fraction) (in cyclohexane, 308.15 K) was 0.00824. For the same compound, the solubility (mole fraction) (in cyclohexane, 313.15 K) was 0.0111, the solubility (mole fraction) (in cyclohexane, 318.15 K) was 0.0144 and the solubility (mole fraction) (in ethanol, 278.15 K) was 0.0071. For the same compound, the solubility (mole fraction) (in ethanol, 283.15 K) was 0.011, the solubility (mole fraction) (in ethanol, 288.15 K) was 0.0205 and the solubility (mole fraction) (in ethanol, 293.15 K) was 0.0331. The solubility (mole fraction) (in ethanol, 298.15 K) was 0.0533, the solubility (mole fraction) (in ethanol, 303.15 K) was 0.0869 and the solubility (mole fraction) (in ethanol, 308.15 K) was 0.138. For the same compound, the solubility (mole fraction) (in ethanol, 313.15 K) was 0.222, the solubility (mole fraction) (in ethanol, 318.15 K) was 0.357 and the solubility (mole fraction) (in isopropanol, 278.15 K) was 0.00371. It also gave a solubility (mole fraction) (in isopropanol, 283.15 K) of 0.00604, a solubility (mole fraction) (in isopropanol, 288.15 K) of 0.0108 and a solubility (mole fraction) (in isopropanol, 293.15 K) of 0.0204. The solubility (mole fraction) (in isopropanol, 298.15 K) was 0.0351, the solubility (mole fraction) (in isopropanol, 303.15 K) was 0.0604 and the solubility (mole fraction) (in isopropanol, 308.15 K) was 0.101. For the same compound, the solubility (mole fraction) (in isopropanol, 313.15 K) was 0.171, the solubility (mole fraction) (in isopropanol, 318.15 K) was 0.282 and the solubility (mole fraction) (in methanol, 278.15 K) was 0.012. It also gave a solubility (mole fraction) (in methanol, 283.15 K) of 0.0182, a solubility (mole fraction) (in methanol, 288.15 K) of 0.0303 and a solubility (mole fraction) (in methanol, 293.15 K) of 0.05. It also gave a solubility (mole fraction) (in methanol, 298.15 K) of 0.0802, a solubility (mole fraction) (in methanol, 303.15 K) of 0.122 and a solubility (mole fraction) (in methanol, 308.15 K) of 0.199. It also gave a solubility (mole fraction) (in methanol, 313.15 K) of 0.32, a solubility (mole fraction) (in methanol, 318.15 K) of 0.484 and a solubility (mole fraction) (in n-hexane, 278.15 K) of 0.000862. It also gave a solubility (mole fraction) (in n-hexane, 283.15 K) of 0.00118, a solubility (mole fraction) (in n-hexane, 288.15 K) of 0.00169 and a solubility (mole fraction) (in n-hexane, 293.15 K) of 0.0024. For the same compound, the solubility (mole fraction) (in n-hexane, 298.15 K) was 0.00319, the solubility (mole fraction) (in n-hexane, 303.15 K) was 0.00421 and the solubility (mole fraction) (in n-hexane, 308.15 K) was 0.00574. It also gave a solubility (mole fraction) (in n-hexane, 313.15 K) of 0.00746, a solubility (mole fraction) (in n-hexane, 318.15 K) of 0.00962 and a solubility (mole fraction) (in n-propanol, 278.15 K) of 0.00521. The solubility (mole fraction) (in n-propanol, 283.15 K) was 0.00952, the solubility (mole fraction) (in n-propanol, 288.15 K) was 0.0172 and the solubility (mole fraction) (in n-propanol, 293.15 K) was 0.0282. For the same compound, the solubility (mole fraction) (in n-propanol, 298.15 K) was 0.0469, the solubility (mole fraction) (in n-propanol, 303.15 K) was 0.0781 and the solubility (mole fraction) (in n-propanol, 308.15 K) was 0.124. It also gave a solubility (mole fraction) (in n-propanol, 313.15 K) of 0.202 and a solubility (mole fraction) (in n-propanol, 318.15 K) of 0.33.

Reference: BigSolDB 2.1
